# Reference: publication PMC12257073 (Cancer Research Communications, 2025)
# Entries after “also recorded” stand apart in the source; their conditions may differ.
# Assay: Adverse events (treatment-related and all-cause) and dose-limiting toxicities, NCI CTCAE version 4.0
# Conditions: for Patients with treatment-related grade 3+ AEs: seven patients
# [1] = Group 2, all-cause adverse events, Missing Categories
# [2] = Group 2, all-cause adverse events, Skin and subcutaneous tissue disorders
# [3] = Group 2, all-cause adverse events, Vascular disorders
# [4] = group 1, 37 mg TP-0903 + decitabine
# [5] = group 1, TP-0903 37 mg/day + decitabine, n = 15
# [6] = group 2, 25 mg TP-0903 + decitabine
# [7] = group 2, TP-0903 25 mg/day + decitabine, n = 12
# [8] = overall, TP-0903 + decitabine, n = 27
# Description: The phase 1b portion of the study used a standard 3 + 3 dose-escalation design with a starting dose level 1 (DL1) of 37 mg oral daily TP-0903 (Supplementary Table S2) based on experience with 50 mg oral daily as a single agent in patients with solid tumors ([25]). Dose-limiting toxicities (DLT) were evaluated to establish the dose brought forward for an expansion cohort (phase 2). Seven patients were enrolled in the phase 1b study, which was completed in January 2021 with the decision to move forward with an expansion cohort of 37 mg oral daily. Across the phase 1b and phase 2 studies, 15 patients were enrolled and started on 37 mg TP-0903 oral daily on days 1 to 21 (group 1). […] One additional patient was enrolled at this time but was inadvertently started on 25 mg TP-0903 oral daily on days 1 to 21. […] In May 2021, an amendment was approved to allow enrollment of a new group 2 at 25mg oral daily on days 1 to 21 of TP-0903 (DL-1) in stage 2 of the phase 2 study.
# Clinical response was assessed according to the modified 2017 European LeukemiaNet AML criteria ([26]). The primary endpoint was achievement of CR within six cycles of therapy. Secondary endpoints included toxicity, duration of response, OS, and the proportion of eligible patients who effectively transitioned to allogeneic stem cell transplantation. Exploratory endpoints included pharmacokinetics (PK), correlative genetic, and biochemical data; correlations between morphologic remission, spectral flow cytometry, and mutational remission; and duration of remission or survival. […] Adverse events (AE) were graded according to the NCI Common Terminology Criteria for Adverse Events version 4.0 ([27]).
structure (smiles),measurement,setting,value
"CN1CCN(Cc2ccc(Nc3ncc(Cl)c(Nc4ccccc4S(=O)(=O)N(C)C)n3)cc2)CC1.O=C(O)C(O)C(O)C(=O)O.O=C(O)C(O)C(O)C(=O)O [TP-0903, 2-(5-chloro-2-(4-((4-methylpiperazin-1-yl)methyl)phenylamino)pyrimidin-4-yl)amino-N,N-dimethylbenzene-1-sulfonamide di-tartrate salt]","Hypotension (intermittent), All",[1],1 (8.3)
same,"Hypotension (intermittent), Grade 1 2",[1],1 (8.3)
same,"Hypotension (intermittent), Grade 3+",[1],0 (0)
same,"INR - Increased, All",[1],0 (0)
same,"INR - Increased, Grade 1 2",[1],0 (0)
same,"INR - Increased, Grade 3+",[1],0 (0)
same,"Inflammation (bilateral knee), All",[1],1 (8.3)
same,"Inflammation (bilateral knee), Grade 1 2",[1],1 (8.3)
same,"Inflammation (bilateral knee), Grade 3+",[1],0 (0)
same,"Itching (intermittent), All",[1],1 (8.3)
same,"Itching (intermittent), Grade 1 2",[1],1 (8.3)
same,"Itching (intermittent), Grade 3+",[1],0 (0)
same,"Microvascular ischemic disease, All",[1],1 (8.3)
same,"Microvascular ischemic disease, Grade 1 2",[1],1 (8.3)
same,"Microvascular ischemic disease, Grade 3+",[1],0 (0)
same,"Pain (leg), All",[1],1 (8.3)
same,"Pain (leg), Grade 1 2",[1],1 (8.3)
same,"Pain (leg), Grade 3+",[1],0 (0)
same,"Retinal Detachment, All",[1],0 (0)
same,"Retinal Detachment, Grade 1 2",[1],0 (0)
same,"Retinal Detachment, Grade 3+",[1],0 (0)
same,"Steroid-induced hyperglycemia, All",[1],1 (8.3)
same,"Steroid-induced hyperglycemia, Grade 1 2",[1],1 (8.3)
same,"Steroid-induced hyperglycemia, Grade 3+",[1],0 (0)
same,"Symptomatic anemia, All",[1],1 (8.3)
same,"Symptomatic anemia, Grade 1 2",[1],0 (0)
same,"Symptomatic anemia, Grade 3+",[1],1 (8.3)
same,"lung fullness, All",[1],0 (0)
same,"lung fullness, Grade 1 2",[1],0 (0)
same,"lung fullness, Grade 3+",[1],0 (0)
same,"neuropathy (BLE), All",[1],1 (8.3)
same,"neuropathy (BLE), Grade 1 2",[1],1 (8.3)
same,"neuropathy (BLE), Grade 3+",[1],0 (0)
same,"pericarditis (intermittent), All",[1],1 (8.3)
same,"pericarditis (intermittent), Grade 1 2",[1],1 (8.3)
same,"pericarditis (intermittent), Grade 3+",[1],0 (0)
same,"Dry skin, All",[2],0 (0)
same,"Dry skin, Grade 1 2",[2],0 (0)
same,"Dry skin, Grade 3+",[2],0 (0)
same,"Ecchymosis, All",[2],4 (33.3)
same,"Ecchymosis, Grade 1 2",[2],4 (33.3)
same,"Ecchymosis, Grade 3+",[2],0 (0)
same,"Erythema nodosum, All",[2],1 (8.3)
same,"Erythema nodosum, Grade 1 2",[2],1 (8.3)
same,"Erythema nodosum, Grade 3+",[2],0 (0)
same,"Erythema, All",[2],0 (0)
same,"Erythema, Grade 1 2",[2],0 (0)
same,"Erythema, Grade 3+",[2],0 (0)
same,"Hyperhidrosis, All",[2],1 (8.3)
same,"Hyperhidrosis, Grade 1 2",[2],1 (8.3)
same,"Hyperhidrosis, Grade 3+",[2],0 (0)
same,"Nail discolouration, All",[2],0 (0)
same,"Nail discolouration, Grade 1 2",[2],0 (0)
same,"Nail discolouration, Grade 3+",[2],0 (0)
same,"Petechiae, All",[2],3 (25)
same,"Petechiae, Grade 1 2",[2],3 (25)
same,"Petechiae, Grade 3+",[2],0 (0)
same,"Photosensitivity reaction, All",[2],0 (0)
same,"Photosensitivity reaction, Grade 1 2",[2],0 (0)
same,"Photosensitivity reaction, Grade 3+",[2],0 (0)
same,"Pruritus, All",[2],0 (0)
same,"Pruritus, Grade 1 2",[2],0 (0)
same,"Pruritus, Grade 3+",[2],0 (0)
same,"Rash papular, All",[2],1 (8.3)
same,"Rash papular, Grade 1 2",[2],1 (8.3)
same,"Rash papular, Grade 3+",[2],0 (0)
same,"Rash, All",[2],1 (8.3)
same,"Rash, Grade 1 2",[2],1 (8.3)
same,"Rash, Grade 3+",[2],0 (0)
same,"Scab, All",[2],1 (8.3)
same,"Scab, Grade 1 2",[2],1 (8.3)
same,"Scab, Grade 3+",[2],0 (0)
same,"Skin disorder, All",[2],0 (0)
same,"Skin disorder, Grade 1 2",[2],0 (0)
same,"Skin disorder, Grade 3+",[2],0 (0)
same,"Skin lesion, All",[2],1 (8.3)
same,"Skin lesion, Grade 1 2",[2],1 (8.3)
same,"Skin lesion, Grade 3+",[2],0 (0)
same,"Swelling face, All",[2],1 (8.3)
same,"Swelling face, Grade 1 2",[2],1 (8.3)
same,"Swelling face, Grade 3+",[2],0 (0)
same,"Hypertension, All",[3],1 (8.3)
same,"Hypertension, Grade 1 2",[3],0 (0)
same,"Hypertension, Grade 3+",[3],1 (8.3)
same,"Hypotension, All",[3],1 (8.3)
same,"Hypotension, Grade 1 2",[3],0 (0)
same,"Hypotension, Grade 3+",[3],1 (8.3)
same,"Lymphoedema, All",[3],1 (8.3)
same,"Lymphoedema, Grade 1 2",[3],1 (8.3)
same,"Lymphoedema, Grade 3+",[3],0 (0)
same,"Peripheral venous disease, All",[3],1 (8.3)
same,"Peripheral venous disease, Grade 1 2",[3],1 (8.3)
same,"Peripheral venous disease, Grade 3+",[3],0 (0)
same,Serious AEs related to TP-0903,"all treated patients, TP-0903 + decitabine",no patients had serious AEs related to TP-0903; also recorded: no serious AEs attributable to TP-0903
same,"Diarrhea, grade 1 to 2 treatment-related AE (any grade)",[4],33%
same,"Fatigue, grade 3+ treatment-related AE",[4],6%
same,"Nausea, grade 1 to 2 treatment-related AE (any grade)",[4],47%
same,"Neutropenia, grade 3+ treatment-related AE",[4],33%
same,"Stomatitis, grade 3+ treatment-related AE",[4],6%
same,"Thrombocytopenia, grade 3+ treatment-related AE",[4],27%
same,Patients with treatment-related grade 3+ AEs,[4],47%
same,"Anemia, treatment-related AE grade ≥3",[5],2 (13.3) no. (%)
same,"Decreased appetite, treatment-related AE grade ≥3",[5],0 (0) no. (%)
same,"Febrile neutropenia, treatment-related AE grade ≥3",[5],0 (0) no. (%)
same,"Leukopenia, treatment-related AE grade ≥3",[5],3 (20) no. (%)
same,"Lymphocyte count decreased, treatment-related AE grade ≥3",[5],0 (0) no. (%)
same,"Neutropenia, treatment-related AE grade ≥3",[5],5 (33.3) no. (%)
same,"Pneumonia, treatment-related AE grade ≥3",[5],0 (0) no. (%)
same,"Thrombocytopenia, treatment-related AE grade ≥3",[5],4 (26.7) no. (%)
same,"Decreased appetite, grade 1 to 2 treatment-related AE (any grade)",[6],25%
same,"Decreased appetite, grade 3+ treatment-related AE",[6],8%
same,"Diarrhea, grade 1 to 2 treatment-related AE (any grade)",[6],25%
same,"Febrile neutropenia, grade 3+ treatment-related AE",[6],33%
same,"Leukopenia, grade 3+ treatment-related AE",[6],33%
same,"Lymphocyte count decrease, grade 3+ treatment-related AE",[6],42%
same,"Nausea, grade 1 to 2 treatment-related AE (any grade)",[6],42%
same,"Neutropenia, grade 3+ treatment-related AE",[6],50%
same,"Pneumonia, grade 3+ treatment-related AE",[6],8%
same,"Thrombocytopenia, grade 3+ treatment-related AE",[6],25%
same,Patients with treatment-related grade 3+ AEs,[6],58%
same,"Anemia, treatment-related AE grade ≥3",[7],1 (8.3) no. (%)
same,"Decreased appetite, treatment-related AE grade ≥3",[7],1 (8.3) no. (%)
same,"Fatigue, treatment-related AE grade ≥3",[7],0 (0) no. (%)
same,"Febrile neutropenia, treatment-related AE grade ≥3",[7],4 (33.3) no. (%)
same,"Leukopenia, treatment-related AE grade ≥3",[7],4 (33.3) no. (%)
same,"Lymphocyte count decreased, treatment-related AE grade ≥3",[7],5 (41.7) no. (%)
same,"Neutropenia, treatment-related AE grade ≥3",[7],6 (50) no. (%)
same,"Pneumonia, treatment-related AE grade ≥3",[7],1 (8.3) no. (%)
same,"Stomatitis, treatment-related AE grade ≥3",[7],0 (0) no. (%)
same,"Thrombocytopenia, treatment-related AE grade ≥3",[7],3 (25) no. (%)
same,"Anemia, treatment-related AE grade ≥3",[8],3 (11.1) no. (%)
same,"Decreased appetite, treatment-related AE grade ≥3",[8],1 (3.7) no. (%)
same,"Fatigue, treatment-related AE grade ≥3",[8],1 (3.7) no. (%)
same,"Febrile neutropenia, treatment-related AE grade ≥3",[8],4 (14.8) no. (%)
same,"Leukopenia, treatment-related AE grade ≥3",[8],7 (25.9) no. (%)
same,"Lymphocyte count decreased, treatment-related AE grade ≥3",[8],5 (18.5) no. (%)
same,"Neutropenia, treatment-related AE grade ≥3",[8],11 (40.7) no. (%)
same,"Pneumonia, treatment-related AE grade ≥3",[8],1 (3.7) no. (%)
same,"Stomatitis, treatment-related AE grade ≥3",[8],1 (3.7) no. (%)
same,"Thrombocytopenia, treatment-related AE grade ≥3",[8],7 (25.9) no. (%)
same,Dose-limiting toxicities (DLT),"phase 1b, DL1 37 mg TP-0903 + decitabine, six evaluable patients",No DLTs were observed
